The text below walks through data of patent publication US20240368115A1, “REGULATOR CONTAINING TRICYCLIC DERIVATIVE, PREPARATION METHOD THEREFOR AND APPLICATION THEREOF” (SHUJING BIOPHARMA CO., LTD, priority 2021, published 2024).

Holding throughout (assay type): cell-based
One experiment has as its target T1, 5-HT1A receptor (Homo sapiens, UniProt P08908).
T1 construct: expressed in transfected cells
T1 sequence (P08908 1-422): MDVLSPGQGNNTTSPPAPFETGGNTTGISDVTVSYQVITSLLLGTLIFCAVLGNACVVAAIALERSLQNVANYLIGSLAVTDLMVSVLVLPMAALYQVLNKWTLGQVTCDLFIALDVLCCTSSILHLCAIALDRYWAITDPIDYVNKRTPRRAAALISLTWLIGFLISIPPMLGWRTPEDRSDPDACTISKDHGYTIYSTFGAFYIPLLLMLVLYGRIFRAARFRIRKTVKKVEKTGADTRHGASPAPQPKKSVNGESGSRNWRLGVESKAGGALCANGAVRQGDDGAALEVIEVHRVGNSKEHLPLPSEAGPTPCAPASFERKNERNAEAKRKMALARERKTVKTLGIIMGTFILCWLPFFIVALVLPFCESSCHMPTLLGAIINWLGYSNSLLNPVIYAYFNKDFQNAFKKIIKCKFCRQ
Put plainly: 5-HT1A receptor cAMP agonist test. Conditions: HEK293 cell strain stably expressing 5-HT1A receptor.

For the next experiment, the target named is 5-HT2A receptor (Homo sapiens, UniProt P28223). Put plainly: Calcium flux test for 5-HT2A receptor. The settings on record: CHO cell strain stably expressing 5-HT2A receptor. On the technique in general: A change in cytosolic calcium serves as a functional read-out for many receptors and channels.
Sequence of 5-HT2A receptor (P28223 whole entry): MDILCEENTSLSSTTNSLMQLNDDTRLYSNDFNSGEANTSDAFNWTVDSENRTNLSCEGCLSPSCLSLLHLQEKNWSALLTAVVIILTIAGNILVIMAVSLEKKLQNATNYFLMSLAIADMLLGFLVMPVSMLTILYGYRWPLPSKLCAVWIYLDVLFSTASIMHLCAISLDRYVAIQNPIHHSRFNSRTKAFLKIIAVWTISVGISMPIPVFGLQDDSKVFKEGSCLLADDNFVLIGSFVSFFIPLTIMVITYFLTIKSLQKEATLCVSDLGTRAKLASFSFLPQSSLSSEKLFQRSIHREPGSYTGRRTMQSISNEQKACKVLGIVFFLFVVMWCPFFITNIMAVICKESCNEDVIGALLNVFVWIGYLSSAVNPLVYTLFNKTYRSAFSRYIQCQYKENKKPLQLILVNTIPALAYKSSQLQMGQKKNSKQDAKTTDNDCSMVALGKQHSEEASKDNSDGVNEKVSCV
The target in the next experiment is T2, D2L receptor (Homo sapiens, UniProt P14416).
T2 construct: expressed in transfected cells
T2 sequence (P14416 whole entry): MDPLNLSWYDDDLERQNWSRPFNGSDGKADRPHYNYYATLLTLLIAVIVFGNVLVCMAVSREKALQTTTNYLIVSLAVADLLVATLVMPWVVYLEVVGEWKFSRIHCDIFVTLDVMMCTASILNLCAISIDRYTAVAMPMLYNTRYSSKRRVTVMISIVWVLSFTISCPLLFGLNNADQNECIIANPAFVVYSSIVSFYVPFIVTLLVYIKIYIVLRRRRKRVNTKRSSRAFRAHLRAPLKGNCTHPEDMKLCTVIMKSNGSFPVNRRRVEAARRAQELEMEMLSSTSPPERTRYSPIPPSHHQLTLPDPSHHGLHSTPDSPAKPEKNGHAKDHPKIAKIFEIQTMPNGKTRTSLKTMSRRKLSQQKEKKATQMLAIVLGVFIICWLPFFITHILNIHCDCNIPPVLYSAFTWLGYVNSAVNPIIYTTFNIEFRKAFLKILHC
The experiment is described as follows: D2L receptor cAMP agonist test. The settings on record: HEK293 cell strain stably expressing D2L receptor.

pEC50, pIC50: −log10 of the molar value.

Broadly, the pEC50 is the negative decadic logarithm of the EC50, by convention in mol/L. High values mean a low EC50, low ones a high EC50. In general, pIC50 refers to the negative decadic logarithm of the IC50, by convention in mol/L. Turning to `O=C1Nc2cc(OCCCCN3CCN(c4cccc(Cl)c4Cl)CC3)ccc2C2CC12` (stereo not drawn) [Example 1, 5-(4-(4-(2,3-Dichlorophenyl)piperazin-1-yl)butoxy)-3,7b-dihydro-1H-cyclopropa[c]quinolin-2(1aH)-one], the negative logarithm of the EC50 (pEC50) was 6.00 on 5-HT1A receptor (cAMP, forskolin 2.5×10^−7 M) and 9.21 at D2L receptor (cAMP, forskolin 0.5 μM). The “5-HT1A Max Act %” value at 5-HT1A receptor (positive control serotonin 10^−6 M) is on record as 50.2%. Also, the negative-log IC50 (pIC50) on 5-HT2A receptor (calcium flux, antagonism of serotonin) was 6.14. In addition, the “5-HT2A Max Inh %” value at 5-HT2A receptor (positive control ketanserin 10^−7 M) turned out to be 98.4%. Besides, on D2L receptor (positive control dopamine 1 μM), the “D2L Max Act %” value turned out to be 54.4%.
